# Reference: patent publication US11051515B2, “3-acyl-benzamides and their use as herbicides” (Bayer Aktiengesellschaft, priority 2017, dated 2021)
# Key:
# MATIN [1] = assay: Post-emergence action against MATIN; assay type: in vivo, Matricaria inodora; conditions: post-emergence, dosage 80 g/ha, visual assessment about 3 weeks after treatment vs untreated controls
# Procedure, shortened: (§1)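 Post-emergence foliar spray on greenhouse plants at the one-leaf stage, using wettable-powder or emulsion-concentrate formulations in water (600 to […], plus 0.2% wetting agent). Damage scored by eye roughly 3 weeks later against untreated plants: 0% = like control, 100% = dead.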
# VERPE [2] = assay: Post-emergence action against VERPE; assay type: in vivo, Veronica persica; conditions: dosage 80 g/ha
# Procedure, shortened: as §1
# VIOTR [3] = assay: Pre-emergence action against VIOTR; assay type: in vivo, Viola tricolor; conditions: Dosage 320 g/ha, pre-emergence
# Procedure, shortened: (§2)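 Seeds sown in sandy loam in wood-fiber pots and covered with soil. Greenhouse growth; visual damage scored after 3 weeks versus untreated controls (100% = dead, 0% = like control).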
# ABUTH [4] = assay: Pre-emergence action against ABUTH; assay type: in vivo, Abutilon theophrasti; conditions: pre-emergence, dosage 320 g/ha, scored visually after 3 weeks vs untreated controls
# Procedure, shortened: as §2
# AVEFA = assay: Pre-emergence action against AVEFA; assay type: in vivo, Avena fatua; conditions: dosage 320 g/ha, scored visually after 3 weeks vs untreated controls
# Procedure, shortened: as §2
# POLCO [5] = assay: Post-emergence action against POLCO; assay type: in vivo, Polygonum convolvulus; conditions: post-emergence, dosage 80 g/ha
# Procedure, shortened: as §1
# ABUTH [6] = assay: Post-emergence action against ABUTH; assay type: in vivo, Abutilon theophrasti; conditions: post-emergence, dosage 80 g/ha, visual assessment about 3 weeks after treatment vs untreated controls
# Procedure, shortened: as §1
# DIGSA [7] = assay: Pre-emergence action against DIGSA; assay type: in vivo, Digitaria sanguinalis; conditions: dosage 320 g/ha, scored visually after 3 weeks vs untreated controls
# Procedure, shortened: as §2
# ECHCG [8] = assay: Post-emergence action against ECHCG; assay type: in vivo, Echinochloa crus-galli; conditions: post-emergence, dosage 80 g/ha, visual assessment about 3 weeks after treatment vs untreated controls
# Procedure, shortened: as §1
# STEME [9] = assay: Post-emergence action against STEME; assay type: in vivo, Stellaria media; conditions: post-emergence, dosage 80 g/ha
# Procedure, shortened: as §1
# VIOTR [10] = assay: Post-emergence action against VIOTR; assay type: in vivo, Viola tricolor; conditions: post-emergence, dosage 80 g/ha
# Procedure, shortened: as §1
# DIGSA [11] = assay: Post-emergence action against DIGSA; assay type: in vivo, Digitaria sanguinalis; conditions: dosage 80 g/ha, visual assessment about 3 weeks after treatment vs untreated controls
# Method: Seeds of monocotyledonous and dicotyledonous weed and crop plants are laid out in sandy loam soil in wood-fiber pots, covered with soil and cultivated in a greenhouse under good growth conditions. 2 to 3 weeks after sowing, the test plants are treated at the one-leaf stage. The compounds of the invention, formulated in the form of wettable powders (WP) or as emulsion concentrates (EC), are then sprayed onto the green parts of the plants in the form of an aqueous suspension or emulsion at a water application rate equating to […], with addition of 0.2% wetting agent. After the test plants have been left to stand in the greenhouse under optimal growth conditions for about 3 weeks, the action of the preparations is assessed visually in comparison to untreated controls (herbicidal action in percent (%): 100% activity=the plants have died, 0% activity=like control plants). […] At the same time, inventive compounds leave Gramineae crops such as barley, wheat, rye, millet/Sorghum, corn or rice virtually undamaged when applied post-emergence, even at high active ingredient dosages. In addition, some substances are also harmless to dicotyledonous crops such as soya, cotton, oilseed rape, sugar beet or potatoes. Some of the compounds according to the invention have high selectivity and are therefore suitable for controlling unwanted vegetation in agricultural crops by the post-emergence method. The data of Tables B18 to B34 below illustrate, in an exemplary manner, the […] herbicidal action of the compounds according to the invention, the herbicidal activity being stated in percent.
# ALOMY [12] = assay: Post-emergence action against ALOMY; assay type: in vivo, Alopecurus myosuroides; conditions: Dosage 80 g/ha, post-emergence
# Procedure, shortened: as §1
# ECHCG [13] = assay: Pre-emergence action against ECHCG; assay type: in vivo, Echinochloa crus-galli; conditions: pre-emergence, dosage 320 g/ha, scored visually after 3 weeks vs untreated controls
# Procedure, shortened: as §2
# AMARE [14] = assay: Pre-emergence action against AMARE; assay type: in vivo, Amaranthus retroflexus; conditions: pre-emergence, dosage 320 g/ha, scored visually after 3 weeks vs untreated controls
# Procedure, shortened: as §2
# MATIN [15] = assay: Pre-emergence action against MATIN; assay type: in vivo, Matricaria inodora; conditions: Dosage 320 g/ha, pre-emergence
# Procedure, shortened: as §2
# PHBPU [16] = assay: Post-emergence action against PHBPU; assay type: in vivo, Pharbitis purpurea; conditions: post-emergence, dosage 80 g/ha
# Procedure, shortened: as §1
# AMARE [17] = assay: Post-emergence action against AMARE; assay type: in vivo, Amaranthus retroflexus; conditions: post-emergence, dosage 80 g/ha, visual assessment about 3 weeks after treatment vs untreated controls
# Procedure, shortened: as §1
# VERPE [18] = assay: Pre-emergence action against VERPE; assay type: in vivo, Veronica persica; conditions: Dosage 320 g/ha, pre-emergence
# Procedure, shortened: as §2
# SETVI [19] = assay: Post-emergence action against SETVI; assay type: in vivo, Setaria viridis; conditions: post-emergence, dosage 80 g/ha, visual assessment about 3 weeks after treatment vs untreated controls
# Procedure, shortened: as §1
# STEME [20] = assay: Pre-emergence action against STEME; assay type: in vivo, Stellaria media; conditions: Dosage 320 g/ha, pre-emergence
# Procedure, shortened: as §2
# SETVI [21] = assay: Pre-emergence action against SETVI; assay type: in vivo, Setaria viridis; conditions: pre-emergence, dosage 320 g/ha, scored visually after 3 weeks vs untreated controls
# Procedure, shortened: as §2
# PHBPU [22] = assay: Pre-emergence action against PHBPU; assay type: in vivo, Pharbitis purpurea; conditions: Dosage 320 g/ha, pre-emergence
# Procedure, shortened: as §2
# ALOMY [23] = assay: Pre-emergence action against ALOMY; assay type: in vivo, Alopecurus myosuroides; conditions: dosage 320 g/ha; pre-emergence; scored visually after 3 weeks vs untreated controls; 100% = plants have died, 0% = like control plants
# Procedure, shortened: as §2
# LOLRI = assay: Pre-emergence action against LOLRI; assay type: in vivo, Lolium rigidum; conditions: dosage 320 g/ha, scored visually after 3 weeks vs untreated controls
# Procedure, shortened: as §2
# POLCO [24] = assay: Pre-emergence action against POLCO; assay type: in vivo, Polygonum convolvulus; conditions: Dosage 320 g/ha, pre-emergence
# Procedure, shortened: as §2
Structure (SMILES),Post-emergence action against MATIN (herbicidal action in percent) (MATIN [1]) [%],Post-emergence action against VERPE (VERPE [2]),Pre-emergence action against VIOTR (VIOTR [3]) [%],Pre-emergence action against ABUTH (herbicidal activity) (ABUTH [4]) [%],Pre-emergence action against AVEFA (herbicidal activity) (AVEFA) [%],Post-emergence action against POLCO (POLCO [5]),Post-emergence action against ABUTH (herbicidal action in percent) (ABUTH [6]) [%],Pre-emergence action against DIGSA (herbicidal activity) (DIGSA [7]) [%],Post-emergence action against ECHCG (herbicidal action in percent) (ECHCG [8]) [%],Post-emergence action against STEME (STEME [9]),Post-emergence action against VIOTR (VIOTR [10]),Post-emergence action against DIGSA (herbicidal action in percent) (DIGSA [11]) [%],Pre-emergence action against AMARE (herbicidal activity) (AMARE [14]) [%],Pre-emergence action against MATIN (MATIN [15]) [%],Post-emergence action against PHBPU (PHBPU [16]),Post-emergence action against AMARE (herbicidal action in percent) (AMARE [17]) [%],Pre-emergence action against VERPE (VERPE [18]) [%],Pre-emergence action against STEME (STEME [20]) [%],"SETVI (Table B8, pre-emergence herbicidal activity) (SETVI [21]) [%]",Pre-emergence action against ALOMY (herbicidal activity in percent) (ALOMY [23]) [%],also measured
CCCC(=O)c1c(C(F)(F)F)ccc(C(=O)Nc2nnnn2CCC)c1C [3-16],90,80,90,100,80,90,100,90,90,90,80,90,100,100,90,100,100,100,100,80,Post-emergence action against ALOMY (ALOMY [12]): 80%; Pre-emergence action against ECHCG (herbicidal activity) (ECHCG [13]): 90%; Post-emergence action against SETVI (herbicidal action in percent) (SETVI [19]): 90%; Pre-emergence action against PHBPU (PHBPU [22]): 80%
CCn1nnnc1NC(=O)c1ccc(C(F)(F)F)c(C(=O)C2CCC2)c1Cl [2-153],100,,100,100,,80,100,100,90,100,90,100,100,100,80,90,100,90,100,90,
CCn1nnnc1NC(=O)c1ccc(C(F)(F)F)c(C(=O)C2CCC2)c1SC [2-284],90,80,100,100,90,80,100,100,90,100,80,90,100,100,90,100,100,100,100,90,Pre-emergence action against ECHCG (herbicidal activity) (ECHCG [13]): 100%; Post-emergence action against SETVI (herbicidal action in percent) (SETVI [19]): 100%; Pre-emergence action against PHBPU (PHBPU [22]): 80%
CCn1nnnc1NC(=O)c1ccc(C(F)(F)F)c(C(=O)CCl)c1C [2-22],90,80,100,100,100,,90,100,90,90,100,90,100,100,100,80,100,100,100,90,Pre-emergence action against LOLRI (herbicidal activity) (LOLRI): 90%; Post-emergence action against ALOMY (ALOMY [12]): 80%; Pre-emergence action against POLCO (POLCO [24]): 80%; Pre-emergence action against ECHCG (herbicidal activity) (ECHCG [13]): 90%; Post-emergence action against SETVI (herbicidal action in percent) (SETVI [19]): 80%; Pre-emergence action against PHBPU (PHBPU [22]): 80%
